Experimental data: publication PMC5559473, “Screening of TB Actives for Activity against Nontuberculous Mycobacteria Delivers High Hit Rates” (Frontiers in Microbiology, 2017)
Converted amounts (≈) assume the structure as drawn. “And” between values parts separate entries of the source, which are not always exact repeats. Equal entries are not always repeated. Where two headings read alike, the source gives them in different places.

How the values were obtained:
M. avium 11 [1] = test: Bactericidal assay (CFU, fold kill); type: cell-based, Mycobacterium avium; conditions: for Fold kill at MIC90: 10^7 CFU/mL exposed to MIC90 for 4 days, CFU vs starting inoculum
M. abscessus Bamboo [2] = test: Dose-response growth inhibition (broth microdilution); type: cell-based, Mycobacterium abscessus; conditions: Mycobacteroides abscessus
M. tuberculosis H37Rv = test: as above; type: cell-based; conditions: Mycobacterium tuberculosis, 168 h
M. avium 11 [3] = test: as above; type: cell-based, Mycobacterium avium
M. abscessus Bamboo [4] = test: Bactericidal assay (CFU, fold kill); type: cell-based, Mycobacterium abscessus; conditions: for Fold kill at MIC90: 10^7 CFU/mL exposed to MIC90 for 3 days, CFU vs starting inoculum
[5] = rat, cited from earlier work; for Cmax: BLQ = < 1 ng/mL
M. tuberculosis = tested on: M. tuberculosis; set-up: method as in http://www.pathogenbox.org/; conditions: as reported by MMV, ref http://www.pathogenbox.org/; cited from earlier work
M. abscessus = conditions: cited from earlier work
M. avium = conditions: cited from earlier work
M. avium 11 [6] = test: Single point growth inhibition screening assay; type: cell-based, Mycobacterium avium; conditions: M. avium 11, 20 μM, 4 days
[7] = 72 h, M. abscessus Bamboo, 3 days, read-out: MIC50
[8] = 72 h, M. abscessus Bamboo, 3 days, read-out: MIC90
[9] = M. tuberculosis H37Rv, 7 days, concentration that inhibits 50% of growth, read-out: MIC50
[10] = M. tuberculosis H37Rv, 7 days, concentration that inhibits 90% of growth, read-out: MIC90
[11] = Mycobacterium avium, 96 h, M. avium 11, 4 days, read-out: MIC50
[12] = Mycobacterium avium, 96 h, M. avium 11, 4 days, read-out: MIC90
[13] = IV 1 mg/kg, mean n = 2, ref http://www.pathogenbox.org/
[14] = PO 5 mg/kg, mean n = 2, ref http://www.pathogenbox.org/
[15] = ref Brown-Elliott et al., 2003, Cavusoglu et al., 2007, Aziz et al., 2017

SMILES	Fold kill at MIC90 (M. avium 11 [1])	MIC50 (M. abscessus Bamboo [2]; [7]) [µM]	MIC90 (M. abscessus Bamboo [2]; [8]) [µM]	MIC50 (M. tuberculosis H37Rv; [9]) [µM]	MIC90 (M. tuberculosis H37Rv; [10]) [µM]	MIC50 (M. avium 11 [3]; [11]) [µM]	MIC90 (M. avium 11 [3]; [12]) [µM]	Fold kill at MIC90 (M. abscessus Bamboo [4])	AUCinf ([5]; in vivo, iv, 1 mg/kg) [ng·h/mL]	AUClast ([5]; in vivo, iv, 1 mg/kg) [ng·h/mL]	C0 ([5]; in vivo, iv, 1 mg/kg) [ng/mL]	Cl ([5]; in vivo, iv, 1 mg/kg) [mL/min/kg]	Reported MIC (M. tuberculosis) [µM]	also measured
COc1ccc(OC)c(NCc2ccc3nc(N)nc(N)c3c2Cl)c1 [MMV675968]	NK (NK, “no kill,” i.e., CFU reduction < 10-fold at MIC90)	10.5 (≈ 3.78 µg/mL)	35 (≈ 12.6 µg/mL)	< 0.2	4 (≈ 1.44 µg/mL)	0.2 (≈ 0.072 µg/mL)	3 (≈ 1.08 µg/mL)	NK (NK, “no kill,” i.e., CFU reduction < 10-fold at MIC90)	900	897	1080	18.7		AUCinf ([5]; in vivo, po, 5 mg/kg): 532 ng·h/mL; AUClast ([5]; in vivo, po, 5 mg/kg): 504 ng·h/mL; tmax ([5]; in vivo, po, 5 mg/kg): 1 h; %F ([5]; in vivo): 11%
Cc1cc(C)c2cc(C(=O)NC3CCCCCCC3)[nH]c2c1 [MMV687146]	NK (NK, “no kill,” i.e., CFU reduction < 10-fold at MIC90)	0.8 (≈ 0.239 µg/mL)	2 (≈ 0.597 µg/mL)	< 0.2	< 0.2	3 (≈ 0.895 µg/mL)	9 (≈ 2.69 µg/mL)	100 fold	935	798	2270	18.2	<0.024	AUCinf ([5]; in vivo, po, 5 mg/kg): 483 ng·h/mL; AUClast ([5]; in vivo, po, 5 mg/kg): 456 ng·h/mL; tmax ([5]; in vivo, po, 5 mg/kg): 0.75 h; %F ([5]; in vivo): 11%
CCCCOC(=O)Nc1cc2nc(C3CCCCC3)[nH]c2cc1N1CCCC1 [MMV687730]	NK (NK, “no kill,” i.e., CFU reduction < 10-fold at MIC90)	4 (≈ 1.54 µg/mL)	8.5 (≈ 3.27 µg/mL)	< 0.2	< 0.2	5 (≈ 1.92 µg/mL)	22 (≈ 8.46 µg/mL)	10 fold					0.05	AUCinf [5, 13]: 125 ng·h/mL; AUClast [5, 13]: 108 ng·h/mL; C0 [5, 13]: 444 ng/mL; Cl [5, 13]: 166 mL/min/kg; Vss [5, 13]: 15.9 L/kg; t1/2 [5, 13]: 3.34 h; Cmax [5, 14]: NC (BLQ at all time points)
CN1CCN(CCCOc2ncc(Nc3ncc(-c4ccc(C(F)(F)F)c(F)c4)nc3C(N)=O)cn2)CC1 [MMV687812]	NK (NK, “no kill,” i.e., CFU reduction < 10-fold at MIC90)	6 (≈ 3.21 µg/mL)	> 50	< 0.2	2.2 (≈ 1.18 µg/mL)	25 (≈ 13.4 µg/mL)	> 50		801	381	265	20.8	1.2	MIC90 (M. abscessus Bamboo [2]; read-out: Concentration at which 80% growth inhibition was achieved (printed in MIC90 column)): 12 µM (≈ 6.41 µg/mL); Fold kill (Fold kill at MIC90) (M. abscessus Bamboo [4]; at 12 μM (80% growth inhibition), MIC90 not reached): NK^∧ (NK, “no kill,” i.e., CFU reduction < 10-fold at MIC90); AUCinf ([5]; in vivo, po, 5 mg/kg): 2450 ng·h/mL; AUClast ([5]; in vivo, po, 5 mg/kg): 962 ng·h/mL; tmax ([5]; in vivo, po, 5 mg/kg): 7 h; %F ([5]; in vivo): 50%
CC(=O)NC[C@H]1CN(c2ccc(-c3ccc(CNCc4cnn[nH]4)cc3)c(F)c2)C(=O)O1 [MMV688327, radezolid, reference compound]	NK (NK, “no kill,” i.e., CFU reduction < 10-fold at MIC90)	3.8 (≈ 1.67 µg/mL)	13 (≈ 5.7 µg/mL)	0.5 (≈ 0.219 µg/mL)	2 (≈ 0.877 µg/mL)	4 (≈ 1.75 µg/mL)	35 (≈ 15.3 µg/mL)	NK (NK, “no kill,” i.e., CFU reduction < 10-fold at MIC90)					0.3	
CC(=O)NCC1CN(c2ccc(-c3ccc(CO)cc3)c(F)c2)C(=O)O1 (stereo not drawn) [MMV688508]	NK (NK, “no kill,” i.e., CFU reduction < 10-fold at MIC90)	2.2 (≈ 0.788 µg/mL)	12 (≈ 4.3 µg/mL)	< 0.2	0.3 (≈ 0.108 µg/mL)	0.6 (≈ 0.215 µg/mL)	8 (≈ 2.87 µg/mL)	NK (NK, “no kill,” i.e., CFU reduction < 10-fold at MIC90)	156	156	1310	280	0.4	AUClast ([5]; in vivo, po, 5 mg/kg): 1.45 ng·h/mL; tmax ([5]; in vivo, po, 5 mg/kg): 0.25 h; %F ([5]; in vivo): <1%
CC(=O)NC[C@H]1CN(c2ccc(N3CCSCC3)c(F)c2)C(=O)O1 [MMV688756, sutezolid, reference compound]	NK (NK, “no kill,” i.e., CFU reduction < 10-fold at MIC90)	4.2 (≈ 1.48 µg/mL)	25 (≈ 8.84 µg/mL)	< 0.2	1.2 (≈ 0.424 µg/mL)	0.4 (≈ 0.141 µg/mL)	4 (≈ 1.41 µg/mL)	NK (NK, “no kill,” i.e., CFU reduction < 10-fold at MIC90)					1.2	
COc1ccc2nccc(NC(=O)C3CCN(CCc4ccc(Cl)cc4)CC3)c2n1 [MMV688844]		4.5 (≈ 1.91 µg/mL)	11 (≈ 4.67 µg/mL)	0.2 (≈ 0.085 µg/mL)	2.8 (≈ 1.19 µg/mL)	2 (≈ 0.85 µg/mL)	> 50	100 fold	167	164	116	102	0.4	Fold kill (Fold kill at MIC90) (M. avium 11 [1]; at 6 μM (80% growth inhibition), MIC90 not reached): NK^# (NK, “no kill,” i.e., CFU reduction < 10-fold at MIC90); MIC90 (M. avium 11 [3]; Mycobacterium avium, 11, read-out: Concentration at which 80% growth inhibition was achieved (printed in MIC90 column)): 6 µM (≈ 2.55 µg/mL)
O=C(N[C@H](Cc1ccccc1)C(=O)Nc1ccccc1N1CCOCC1)c1cccs1 [MMV688845]	NK (NK, “no kill,” i.e., CFU reduction < 10-fold at MIC90)	1.5 (≈ 0.653 µg/mL)	7 (≈ 3.05 µg/mL)	< 0.2	1.7 (≈ 0.74 µg/mL)	0.6 (≈ 0.261 µg/mL)	3 (≈ 1.31 µg/mL)	10 fold	174	171	716	96.3	1.2	AUClast ([5]; in vivo, po, 5 mg/kg): 3.95 ng·h/mL; tmax ([5]; in vivo, po, 5 mg/kg): 0.375 h; %F ([5]; in vivo): <1%
Cc1ccccc1CN1CCC(O)(c2ccc(Cl)c(C(F)(F)F)c2)CC1 [MMV688846]								10 fold					0.4	MIC50 (M. abscessus Bamboo [2]; 72 h): 0.7 µM (≈ 0.269 µg/mL); MIC90 (M. abscessus Bamboo [2]; 72 h): 1.5 µM (≈ 0.576 µg/mL); MIC50 (M. tuberculosis H37Rv; H37RV): 0.2 µM (≈ 0.0768 µg/mL); MIC90 (M. tuberculosis H37Rv; H37RV): 0.6 µM (≈ 0.23 µg/mL); MIC50 (M. avium 11 [3]; Mycobacterium avium, 11, 96 h): 20 µM (≈ 7.68 µg/mL); IC90 (M. avium 11 [3]; Mycobacterium avium, 11, 96 h, read-out: MIC90): > 50 µM; AUCinf [5, 13]: 464 ng·h/mL; AUClast [5, 13]: 423 ng·h/mL; C0 [5, 13]: 563 ng/mL; Cl [5, 13]: 36.8 mL/min/kg; Vss [5, 13]: 14.4 L/kg; t1/2 [5, 13]: 9.78 h; %F ([5]; PO 5 mg/kg vs IV 1 mg/kg, ref http://www.pathogenbox.org/): <1%; Cmax [5, 14]: 3.19 ng/mL; AUCinf [5, 14]: 27.5 ng·h/mL; AUClast [5, 14]: 18.1 ng·h/mL; t1/2 [5, 14]: 4.6 h; tmax [5, 14]: 1.5 h
CC(C)=CCC/C(C)=C/CNCCNC1C2CC3CC(C2)CC1C3 (stereo not drawn) [SQ109]														MIC (M. abscessus; ref Sacksteder et al., 2012): 4–16 mg/L and 12–48 μM; MIC (M. avium; ref Sacksteder et al., 2012): 4–16 mg/L and 12–48 μM
CC(C)/N=c1\cc2n(-c3ccc(Cl)cc3)c3ccccc3nc-2cc1Nc1ccc(Cl)cc1 [clofazimine]														Activity in primary screen (hit = equal or more than 80% growth inhibition) (M. avium 11 [6]): M. avium-specific hits
C[C@]1(COc2ccc(N3CCC(Oc4ccc(OC(F)(F)F)cc4)CC3)cc2)Cn2cc([N+](=O)[O-])nc2O1 [delamanid]														Activity in primary screen (hit = equal or more than 80% growth inhibition) (M. avium 11 [6]): M. avium-specific hits
C[C@@H](O)[C@H]1C(=O)N2C(C(=O)O)=C(SCCN=CN)C[C@H]12 [imipenem]														MIC (M. abscessus; ref Lavollay et al., 2014): around 27 μM and ~8 mg/L
CC(=O)NC[C@H]1CN(c2ccc(N3CCOCC3)c(F)c2)C(=O)O1 [linezolid]														MIC90 (M. abscessus; [15]): 36 µM (≈ 12.1 µg/mL); MIC90 (M. avium; [15]): 22 µM (≈ 7.42 µg/mL)
OC(c1cc(C(F)(F)F)nc2c(C(F)(F)F)cccc12)C1CCCCN1 (stereo not drawn) [mefloquine]														Activity in primary screen (hit = equal or more than 80% growth inhibition) (M. avium 11 [6]): M. avium-specific hits
CO[C@H]1/C=C/O[C@@]2(C)Oc3c(C)c(O)c4c(O)c(c(/C=N/N5CCN(C)CC5)c(O)c4c3C2=O)NC(=O)/C(C)=C\C=C\[C@H](C)[C@H](O)[C@@H](C)[C@@H](O)[C@@H](C)[C@H](OC(C)=O)[C@@H]1C [rifampicin]														MIC (M. abscessus; ref Aziz et al., 2017): ≥ 37 µM; Activity in primary screen (hit = equal or more than 80% growth inhibition) (M. avium 11 [6]): M. avium-specific hits
[H]/N=C(/N)N[C@H]1[C@H](O)[C@@H](O)[C@H](O[C@@H]2O[C@@H](C)[C@](O)(C=O)[C@H]2O[C@@H]2O[C@@H](CO)[C@H](O)[C@@H](O)[C@@H]2NC)[C@@H](N/C(N)=N\[H])[C@@H]1O [streptomycin]														Activity in primary screen (hit = equal or more than 80% growth inhibition) (M. avium 11 [6]): M. avium-specific hits
